pIC50: −log10 of the molar value. Values joined by “and” are separate entries in the source; they are usually repeats but may differ in a detail not shown here. Equal values may be shown once.
Molecular target: T1, CETP (Homo sapiens, UniProt P11597)
T1 construct: from tissue; host or cells: human plasma from normal volunteers
T1 sequence (P11597 18-493): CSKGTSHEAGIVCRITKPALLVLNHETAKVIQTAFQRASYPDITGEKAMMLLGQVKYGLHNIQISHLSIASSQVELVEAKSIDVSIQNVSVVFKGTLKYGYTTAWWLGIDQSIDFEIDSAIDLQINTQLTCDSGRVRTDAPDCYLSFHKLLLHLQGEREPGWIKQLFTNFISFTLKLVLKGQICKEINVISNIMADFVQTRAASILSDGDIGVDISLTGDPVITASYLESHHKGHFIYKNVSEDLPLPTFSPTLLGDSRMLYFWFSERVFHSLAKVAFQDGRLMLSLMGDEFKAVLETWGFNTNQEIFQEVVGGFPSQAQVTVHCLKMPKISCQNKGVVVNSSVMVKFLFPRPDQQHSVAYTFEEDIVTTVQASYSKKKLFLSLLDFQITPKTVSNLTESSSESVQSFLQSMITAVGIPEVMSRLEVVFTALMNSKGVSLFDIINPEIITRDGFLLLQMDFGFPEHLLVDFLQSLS
Test: CETP in vitro assay ([3H]CE-HDL transfer, Amersham kit TRKQ7005; modified protocol in human plasma)
Format: biochemical
Settings: multiple values = multiple measurements; for inhibition at 1 µM / % Inhibition @ 1 μM: 1 μM compound
Protocol: The CETP inhibitory activity of the compounds was determined using a commercially available kit from Amersham Biosciences (Catalog #TRKQ7005).
For the measurement of inhibitory activity in human plasma, a modified protocol (Connolly, D. T. et al., Biochemistry, 39 13870-13879, 2000) was used. Briefly, 80 μl of human plasma (obtained from normal volunteers), approximately 25 μg/ml (200) of [^3H]CE-HDL (Amersham Biosciences from kit TRKQ7005) and 1 μl of compound dissolved in DMSO was incubated for at least 4 hrs at 37° C. and non-specific transfer was determined by incubating a corresponding plate at 4° C. (blank). After the incubation period, 100 of a solution of 1% Dextralip 50/0.5M MgCl2, pH 7.4 was added, vortexed and incubated at room temperature for 10 min. The plate was then centrifuged for 30 min at 10° C. at 3000 rpm in a Sorvall RT6000B centrifuge. Fifty microliters of the supernatant was transferred to a Picoplate (Packard) containing 100 μl of Microscint 40 (Perkin Elmer) and mixed for 30 min using a plate mixer. The radioactivity was counted using a TopCount (Perkin Elmer) and the % control was determined in the samples using the following formula: % transfer relative to vehicle controls (% control)=[cpm blank-cpm test]/cpm blank/cpm control]×100. IC50s were calculated from plots of the % control versus compound concentration.
A variety of example compounds have been made and tested, with a range of in vitro results. Below, in Table 2, are representative compounds and the corresponding data; in some cases, where multiple IC50's are shown, multiple measurements were taken. Naturally, different compounds in Formula (I), (Ia), (Ib) and (Ic) may have not activities identical to any one compound below.

SMILES	inhibition at 1 µM [%]	% Inhibition @ 1 μM [%]	pIC50
O=C(CN1c2cccc(-c3cccc(OC(F)(F)F)c3)c2OC[C@@H]1c1cccc(OC(F)(F)C(F)F)c1)C(F)(F)F [Compound 37, 2-Propanone, 3-[(3S)-2,3-dihydro-3-[3-(1,1,2,2-tetrafluoroethoxy)phenyl]-8-[3-(trifluoromethoxy)phenyl]-4H-1,4-benzoxazin-4-yl]-1,1,1-trifluoro-]	5	–	–
CC(=O)NCCN1c2cccc(-c3cccc(OC(F)(F)F)c3)c2OCC1c1cccc(OC(F)(F)C(F)F)c1 (centres unmarked) [Compound 40, N-{2-[3-[3-(1,1,2,2-Tetrafluoro-ethoxy)-phenyl]-8-(3-trifluoromethoxy-phenyl)-2,3-dihydro-benzo[1,4]oxazin-4-yl]-ethyl}-acetamide]	0	–	–
COC(=O)NCCN1c2cccc(-c3cccc(OC(F)(F)F)c3)c2OCC1c1cccc(OC(F)(F)C(F)F)c1 (centres unmarked) [Compound 41, {2-[3-[3-(1,1,2,2-Tetrafluoro-ethoxy)-phenyl]-8-(3-trifluoromethoxy-phenyl)-2,3-dihydro-benzo[1,4]oxazin-4-yl]-ethyl}-carbamic acid methyl ester]	2	–	–
COC(=O)N(C)CCN1c2cccc(-c3cccc(OC(F)(F)F)c3)c2OCC1c1cccc(OC(F)(F)C(F)F)c1 (centres unmarked) [Compound 42, Methyl-{2-[3-[3-(1,1,2,2-tetrafluoro-ethoxy)-phenyl]-8-(3-trifluoromethoxy-phenyl)-2,3-dihydro-benzo[1,4]oxazin-4-yl]-ethyl}-carbamic acid methyl ester]	8	–	–
CS(=O)(=O)NCCN1c2cccc(-c3cccc(OC(F)(F)F)c3)c2OCC1c1cccc(OC(F)(F)C(F)F)c1 (centres unmarked) [Compound 43, N-{2-[3-[3-(1,1,2,2-Tetrafluoro-ethoxy)-phenyl]-8-(3-trifluoromethoxy-phenyl)-2,3-dihydro-benzo[1,4]oxazin-4-yl]-ethyl}-methanesulfonamide]	0	–	–
CN(CCN1c2cccc(-c3cccc(OC(F)(F)F)c3)c2OCC1c1cccc(OC(F)(F)C(F)F)c1)S(C)(=O)=O (centres unmarked) [Compound 44, N-Methyl-N-{2-[3-[3-(1,1,2,2-tetrafluoro-ethoxy)-phenyl]-8-(3-trifluoromethoxy-phenyl)-2,3-dihydro-benzo[1,4]oxazin-4-yl]-ethyl}-methanesulfonamide]	0	–	–
CC1(C)OC[C@H](CN2c3cccc(-c4cccc(OC(F)(F)F)c4)c3OC[C@@H]2c2cccc(OC(F)(F)C(F)F)c2)O1 [Compound 45, 2H-1,4-Benzoxazine, 4-[[(4S)-2,2-dimethyl-1,3-dioxolan-4-yl]methyl]-3,4-dihydro-3-[3-(1,1,2,2-tetrafluoroethoxy)phenyl]-8-[3-(trifluoromethoxy)phenyl]-, (3S)—]	25	–	–
CC1(C)OC[C@H](CN2c3cccc(-c4cccc(OC(F)(F)F)c4)c3OC[C@H]2c2cccc(OC(F)(F)C(F)F)c2)O1 [Compound 46, 2H-1,4-Benzoxazine, 4-[[(4S)-2,2-dimethyl-1,3-dioxolan-4-yl]methyl]-3,4-dihydro-3-[3-(1,1,2,2-tetrafluoroethoxy)phenyl]-8-[3-(trifluoromethoxy)phenyl]-, (3R)—]	20	–	–
OC[C@@H](O)CN1c2cccc(-c3cccc(OC(F)(F)F)c3)c2OC[C@@H]1c1cccc(OC(F)(F)C(F)F)c1 [Compound 47, 1,2-Propanediol, 3-[(3S)-2,3-dihydro-3-[3-(1,1,2,2-tetrafluoroethoxy)phenyl]-8-[3-(trifluoromethoxy)phenyl]-4H-1,4-benzoxazin-4-yl]-, (2S)—]	27	–	–
C=CCC1COc2c(-c3cccc(OC(F)(F)F)c3)cccc2N1CC(O)C(F)(F)F (centres unmarked) [Compound 50, 3-[3-Allyl-8-(3-trifluoromethoxy-phenyl)-2,3-dihydro-benzo[1,4]oxazin-4-yl]-1,1,1-trifluoro-propan-2-ol]	–	10	–
C=CCC1COc2c(-c3cccc(OC(F)(F)F)c3)cccc2N1CC(O)C(F)(F)F (centres unmarked) [Compound 51, 3-[3-Allyl-8-(3-trifluoromethoxy-phenyl)-2,3-dihydro-benzo[1,4]oxazin-4-yl]-1,1,1-trifluoro-propan-2-ol]	–	0	–

More lines, now with the values ahead:

inhibition at 1 µM [%]	% Inhibition @ 1 μM [%]	pIC50	SMILES
0	–	–	CN1c2cccc(-c3cccc(OC(F)(F)F)c3)c2OCC1c1cccc(OC(F)(F)C(F)F)c1 (centres unmarked) [Compound 32, 4-Methyl-3-[3-(1,1,2,2-tetrafluoro-ethoxy)-phenyl]-8-(3-trifluoromethoxy-phenyl)-3,4-dihydro-2H-benzo[1,4]oxazine]
24	–	–	CCN1c2cccc(-c3cccc(OC(F)(F)F)c3)c2OCC1c1cccc(OC(F)(F)C(F)F)c1 (centres unmarked) [Compound 33, 4-Ethyl-3-[3-(1,1,2,2-tetrafluoro-ethoxy)-phenyl]-8-(3-trifluoromethoxy-phenyl)-3,4-dihydro-2H-benzo[1,4]oxazine]
38	39	6.72	CCCN1c2cccc(-c3cccc(OC(F)(F)F)c3)c2OCC1c1cccc(OC(F)(F)C(F)F)c1 (centres unmarked) [Compound 34, 4-Propyl-3-[3-(1,1,2,2-tetrafluoro-ethoxy)-phenyl]-8-(3-trifluoromethoxy-phenyl)-3,4-dihydro-2H-benzo[1,4]oxazine]
47	52	7.59 and 6.93 and 6.92	C[C@@H](O)CN1c2cccc(-c3cccc(OC(F)(F)F)c3)c2OC[C@@H]1c1cccc(OC(F)(F)C(F)F)c1 [Compound 35, 4H-1,4-Benzoxazine-4-ethanol, 2,3-dihydro-α-methyl-3-[3-(1,1,2,2-tetrafluoroethoxy)phenyl]-8-[3-(trifluoromethoxy)phenyl]-, (3S,αR)—]
28	–	–	C[C@H](O)CN1c2cccc(-c3cccc(OC(F)(F)F)c3)c2OC[C@@H]1c1cccc(OC(F)(F)C(F)F)c1 [Compound 36, 4H-1,4-Benzoxazine-4-ethanol, 2,3-dihydro-α-methyl-3-[3-(1,1,2,2-tetrafluoroethoxy)phenyl]-8-[3-(trifluoromethoxy)phenyl]-, (3S,αS)—]
5	–	–	CC(=O)CN1c2cccc(-c3cccc(OC(F)(F)F)c3)c2OC[C@@H]1c1cccc(OC(F)(F)C(F)F)c1 [Compound 38, 2-Propanone, 1-[(3S)-2,3-dihydro-3-[3-(1,1,2,2-tetrafluoroethoxy)phenyl]-8-[3-(trifluoromethoxy)phenyl]-4H-1,4-benzoxazin-4-yl]-]
2	–	–	NCCN1c2cccc(-c3cccc(OC(F)(F)F)c3)c2OCC1c1cccc(OC(F)(F)C(F)F)c1 (centres unmarked) [Compound 39, 2-[3-[3-(1,1,2,2-Tetrafluoro-ethoxy)-phenyl]-8-(3-trifluoromethoxy-phenyl)-2,3-dihydro-benzo[1,4]oxazin-4-yl]-ethylamine]
13	–	–	OC[C@@H](O)CN1c2cccc(-c3cccc(OC(F)(F)F)c3)c2OC[C@H]1c1cccc(OC(F)(F)C(F)F)c1 [Compound 48, 1,2-Propanediol, 3-[(3R)-2,3-dihydro-3-[3-(1,1,2,2-tetrafluoroethoxy)phenyl]-8-[3-(trifluoromethoxy)phenyl]-4H-1,4-benzoxazin-4-yl]-, (2S)—]
34	24	6.25	CC(C)(O)CN1c2cccc(-c3cccc(OC(F)(F)F)c3)c2OCC1c1cccc(OC(F)(F)C(F)F)c1 (centres unmarked) [Compound 49, 2-Methyl-1-[3-[3-(1,1,2,2-tetrafluoro-ethoxy)-phenyl]-8-(3-trifluoromethoxy-phenyl)-2,3-dihydro-benzo[1,4]oxazin-4-yl]-propan-2-ol]

Reference: US8012963B2, “3,4-dihydro-2H-benzo[1,4]oxazine and thiazine derivatives as CETP inhibitors” (Janssen Pharmaceutica N.V., priority 2006, dated 2011)
